According to patent US20040106687A1, “Carotenoids as anti-hypertension agents” (priority 2001, published 2004):

Test system: healthy young individuals
Assay: Double-blind, placebo-controlled crossover study of lycopene consumption, heart rate and blood pressure measured
Assay type: in vivo, human
Experimental: A double-blind, placebo-controlled crossover study of lycopene consumption in 16 healthy young individuals. Each subject was studied at baseline and then given 15 mg lycopene or placebo for two weeks and re-evaluated. A one-month lycopene administration free washout period followed, another lycopene administration was administered prior to a final evaluation. Each evaluation included measures among other parameters also heart rate and blood pressure. […]

[1] = 16 healthy young individuals, 15 mg lycopene for two weeks

CC(C)=CCC/C(C)=C/C=C/C(C)=C/C=C/C(C)=C/C=C/C=C(C)/C=C/C=C(C)/C=C/C=C(\C)CCC=C(C)C [Lycopene, lycopene]
Diastolic Blood Pressure [1]: 66 ± 2 mmHg | Systolic Blood Pressure [1]: 114 ± 2 mmHg | Change in diastolic blood pressure as compared to placebo administration (during lycopene administration, 15 mg for two weeks, p<0.05): significant reduction
